Results taken from article PMC6941952, “A homogeneous bioluminescent immunoassay to probe cellular signaling pathway regulation” (Communications Biology, 2020).
Values joined by “and” are separate entries in the source; they are usually repeats but may differ in a detail not shown here. Equal entries are not always repeated.

Tested on: total IκBα
Experiment: NanoBiT cell-based immunoassay, total IκBα in MCF-7 cells
Set-up: species or system human
Conditions: for Average IkB protein (%) / Raw data IkB / Subtract reagent background IkB / protein (%) IkB: MCF-7, Fig 7c; for protein (%) IkB: replicate; for IkB degradation (% compared to no IKK16), Average / IkB degradation (% compared to no IKK16) / Non-Treated/Treated / Raw data / Subtract reagent background: TNF; for IkB degradation (% compared to no IKK16), Average: average of replicates; for IkB degradation (% compared to no IKK16) / Non-Treated/Treated / Raw data / Subtract reagent background: single replicates
Method: Prior to NanoBiT Cell-Based Immunoassay, 50,000 cells were seeded in 160 µl of complete growth media per well of a 96-well plate and incubated overnight. […] If necessary, the cell culture media were replaced with serum-free media after the cells were stably adherent on the plate and incubated overnight. To treat cells with activators or inhibitors, medium was changed to 30 µl of medium containing inhibitors. If activation of a specific pathway is needed, the cells were stimulated with 10 µl of medium containing activators. To lyse the cells, 10 µl of lysis buffer containing 0.1% digitonin diluted in 1X immunoassay buffer with protease and phosphatase inhibitors was added and the plates were mixed vigorously for 20 min. Then, 50 µl of an antibody mix containing two primary antibodies against the target protein and NanoBiT detecting antibodies (0.3 µl each per well), diluted in 1X immunoassay buffer was added to the lysates. The plates were incubated at 23 °C for 90 min, followed by the addition of 25 µl of Nano-Glo® reagent consisting of Nano-Glo® Luciferase Assay Substrate mixed with 1X immunoassay buffer. Luminescence was measured using a plate-reading luminometer.
Single dose or dose response inhibitor treatments were performed prior to activation of the pathways as follows. For IκBα, the cells were treated in 30 µl medium with IKK16 or MG132 for 60 min before the addition of 10 µl of DMEM containing appropriate concentration of TNFα. To measure phosphorylation of AKT or STAT3, the corresponding NanoBiT immunoassays were developed with MCF-7 or A431 cells, respectively, according the same scheme used to develop the IκBα assay using the primary antibodies for AKT and STAT3 described in the reagents section. […] Treatment with LY294002 was performed in 30 µl medium and cells were incubated for 60 min before the addition of 1 µM Insulin. To measure STAT3 phosphorylation, A431 cells were incubated overnight in DMEM medium without serum. […] After addition of the stimulators, the cells were incubated for additional times as follows. IκBα phosphorylation and degradation analyses required both time courses and single time points as described in figures. […] The NanoBiT immunoassay protocol was followed as described above.
All 96-well assay plates were read using a GloMax® 96 Microplate Luminometer from Promega. The instrument was set to 0.5 s integration time. In order to obtain net change of signal, the reagent background values (signal from the well containing all reagent except primary antibodies) were subtracted from the sample values. To plot and analyze the data, Microsoft Excel and GraphPad Prism® Software were used. IC50 values were determined by using a nonlinear regression fit to a sigmoidal dose response (variable slope).

[1] = MCF-7 cells, IKK16 0.000762939 uM
[2] = MCF-7 cells, IKK16 0.00305176 uM
[3] = MCF-7 cells, IKK16 0.0488281 uM

With `C[C@]12CC[C@@H]3c4ccc(O)cc4C[C@@H](CCCCCCCCC[S+]([O-])CCCC(F)(F)C(F)(F)F)[C@H]3[C@@H]1CC[C@@H]2O` (stereo partly shown) [Fulvestrant] the “Average IkB protein (%)” value (Fulvestrant 0.0976562 nM, 4 h) was 103.1%, the “Raw data IkB” value (Fulvestrant 0.0976562 nM, 4 h) was 2320000 and 2388000 and 2321000 and the “Subtract reagent background IkB” value (Fulvestrant 0.0976562 nM, 4 h) was 2160700 and 2093700 and 2092700. For the same compound, the “protein (%) IkB” value (Fulvestrant 0.0976562 nM, 4 h) was 102.8% and 100.3% and 106.3%, the “Average IkB protein (%)” value (Fulvestrant 0.195312 nM, 4 h) was 102.8% and the “Raw data IkB” value (Fulvestrant 0.195312 nM, 4 h) was 2292000 and 2388000 and 2330000. For the same compound, the “Subtract reagent background IkB” value (Fulvestrant 0.195312 nM, 4 h) was 2161100 and 2103100 and 2065100, the “protein (%) IkB” value (Fulvestrant 0.195312 nM, 4 h) was 102.8% and 100.7% and 104.9% and the “Average IkB protein (%)” value (Fulvestrant 0.390625 nM, 4 h) was 106.4%. The “Raw data IkB” value (Fulvestrant 0.390625 nM, 4 h) was 2337000 and 2479000 and 2412000, the “Subtract reagent background IkB” value (Fulvestrant 0.390625 nM, 4 h) was 2252550 and 2185550 and 2110550 and the “protein (%) IkB” value (Fulvestrant 0.390625 nM, 4 h) was 107.1% and 104.7% and 107.3%. The “Average IkB protein (%)” value (Fulvestrant 0.78125 nM, 4 h) was 107.7%, the “Raw data IkB” value (Fulvestrant 0.78125 nM, 4 h) was 2309000 and 2550000 and 2458000 and the “Subtract reagent background IkB” value (Fulvestrant 0.78125 nM, 4 h) was 2323650 and 2231650 and 2082650. The “protein (%) IkB” value (Fulvestrant 0.78125 nM, 4 h) was 110.5% and 106.9% and 105.8%, the “Average IkB protein (%)” value (Fulvestrant 1.5625 nM, 4 h) was 109.4% and the “Raw data IkB” value (Fulvestrant 1.5625 nM, 4 h) was 2305000 and 2596000 and 2525000. For the same compound, the “Subtract reagent background IkB” value (Fulvestrant 1.5625 nM, 4 h) was 2368700 and 2297700 and 2077700, the “protein (%) IkB” value (Fulvestrant 1.5625 nM, 4 h) was 110.1% and 105.6% and the “Average IkB protein (%)” value (Fulvestrant 3.125 nM, 4 h) was 110.7%. For the same compound, the “Raw data IkB” value (Fulvestrant 3.125 nM, 4 h) was 2392000 and 2556000 and 2547000, the “Subtract reagent background IkB” value (Fulvestrant 3.125 nM, 4 h) was 2330150 and 2321150 and 2166150 and the “protein (%) IkB” value (Fulvestrant 3.125 nM, 4 h) was 110.8% and 111.2% and 110.1%. The “Average IkB protein (%)” value (Fulvestrant 6.25 nM, 4 h) was 107.5%, the “Raw data IkB” value (Fulvestrant 6.25 nM, 4 h) was 2316000 and 2499000 and 2485000 and the “Subtract reagent background IkB” value (Fulvestrant 6.25 nM, 4 h) was 2273600 and 2259600 and 2090600. For the same compound, the “protein (%) IkB” value (Fulvestrant 6.25 nM, 4 h) was 108.1% and 108.2% and 106.2%, the “Average IkB protein (%)” value (Fulvestrant 25 nM, 4 h) was 102.2% and the “Raw data IkB” value (Fulvestrant 25 nM, 4 h) was 2228000 and 2399000 and 2343000. For the same compound, the “Subtract reagent background IkB” value (Fulvestrant 25 nM, 4 h) was 2174600 and 2118600 and 2003600, the “protein (%) IkB” value (Fulvestrant 25 nM, 4 h) was 103.4% and 101.5% and 101.8% and the “Average IkB protein (%)” value (Fulvestrant 50 nM, 4 h) was 99.5%. The “Raw data IkB” value (Fulvestrant 50 nM, 4 h) was 2216000 and 2302000 and 2278000, the “Subtract reagent background IkB” value (Fulvestrant 50 nM, 4 h) was 2078950 and 2054950 and 1992950 and the “protein (%) IkB” value (Fulvestrant 50 nM, 4 h) was 98.9% and 98.4% and 101.3%. The “Average IkB protein (%)” value (Fulvestrant 100 nM, 4 h) was 94.0%, the “Raw data IkB” value (Fulvestrant 100 nM, 4 h) was 2084000 and 2146000 and 2219000 and the “Subtract reagent background IkB” value (Fulvestrant 100 nM, 4 h) was 1926250 and 1999250 and 1864250. The “protein (%) IkB” value (Fulvestrant 100 nM, 4 h) was 91.6% and 95.8% and 94.7%, the “cytotoxicity inferred from IκBα level” value (MCF-7 cells, 4 h) was “lack of cytotoxicity” and the “effect on IκBα protein level” value (MCF-7 cells, 4 h, same compound titration) was “did not affect”.

In the case of `O=C(c1ccc(Nc2nccc(-c3cc4ccccc4s3)n2)cc1)N1CCC(N2CCCC2)CC1` [IKK16], the “Total IkB Raw data” value (Figure 3a and 3b) is reported as 147500 and 141100 and 148400, the “Total IkB Subtract reagent background” value (Figure 3a and 3b) is reported as 129800 and 128900 and 122500 and the “Total IkB Average” value (Figure 3a and 3b, background subtracted) is reported as 127067. The “TNFα-induced reduction of total IκBα protein” value (MCF-7 cells, 10 µM 1 h, TNFα 50 ng per ml 10 min) was “abolished”, the “IkB degradation (% compared to no IKK16), Average” value [1] was 98.1% and the “IkB degradation (% compared to no IKK16)” value [1] was 101% and 97% and 93%. The Non-Treated/Treated [1] was 4.060 and 4.672 and 4.565 and 4.365, the Raw data [1] was 21820 and 22100 and 21310 and 21710 and the Subtract reagent background [1] was 13931 and 13141 and 13541 and 13651. The “IkB degradation (% compared to no IKK16), Average” value [2] was 96.3%, the “IkB degradation (% compared to no IKK16)” value [2] was 103% and 93% and 95% and 94% and the Non-Treated/Treated [2] was 4.119 and 4.303 and 4.479 and 4.413. The Raw data [2] was 21670 and 21900 and 22440 and 21970, the Subtract reagent background [2] was 13731 and 14271 and 13801 and 13501 and the “IkB degradation (% compared to no IKK16), Average” value (MCF-7 cells, IKK16 0.012207 uM) was 97.0%. The “IkB degradation (% compared to no IKK16)” value (MCF-7 cells, IKK16 0.012207 uM) was 101% and 95% and 99% and 94%, the Non-Treated/Treated (MCF-7 cells, IKK16 0.012207 uM) was 4.063 and 4.367 and 4.623 and 4.410 and the Raw data (MCF-7 cells, IKK16 0.012207 uM) was 21680 and 22090 and 22230 and 21540. The Subtract reagent background (MCF-7 cells, IKK16 0.012207 uM) was 13921 and 14061 and 13371 and 13511, the “IkB degradation (% compared to no IKK16), Average” value [3] was 102.5% and the “IkB degradation (% compared to no IKK16)” value [3] was 101% and 107% and 103% and 99%. The Non-Treated/Treated [3] was 4.060 and 4.927 and 4.840 and 4.651, the Raw data [3] was 20980 and 22100 and 20630 and 20940 and the Subtract reagent background [3] was 13931 and 12461 and 12771 and 12811. The “IkB degradation (% compared to no IKK16), Average” value (MCF-7 cells, IKK16 0.195312 uM) was 98.7%, the “IkB degradation (% compared to no IKK16)” value (MCF-7 cells, IKK16 0.195312 uM) was 99% and 97% and 98% and 100% and the Non-Treated/Treated (MCF-7 cells, IKK16 0.195312 uM) was 3.986 and 4.488 and 4.616 and 4.698. For the same compound, the Raw data (MCF-7 cells, IKK16 0.195312 uM) was 20850 and 22360 and 21850 and 21560, the Subtract reagent background (MCF-7 cells, IKK16 0.195312 uM) was 14191 and 13681 and 13391 and 12681 and the “IkB degradation (% compared to no IKK16), Average” value (MCF-7 cells, IKK16 0.78125 uM) was 84.0%. The “IkB degradation (% compared to no IKK16)” value (MCF-7 cells, IKK16 0.78125 uM) was 86% and 82% and 85%, the Non-Treated/Treated (MCF-7 cells, IKK16 0.78125 uM) was 3.457 and 3.811 and 3.985 and 3.866 and the Raw data (MCF-7 cells, IKK16 0.78125 uM) was 23580 and 24530 and 24280 and 23680. The Subtract reagent background (MCF-7 cells, IKK16 0.78125 uM) was 16361 and 16111 and 15511 and 15411, the “IkB degradation (% compared to no IKK16), Average” value (MCF-7 cells, IKK16 3.125 uM) was 40.0% and the “IkB degradation (% compared to no IKK16)” value (MCF-7 cells, IKK16 3.125 uM) was 42% and 41% and 39% and 38%. The Non-Treated/Treated (MCF-7 cells, IKK16 3.125 uM) was 1.686 and 1.873 and 1.836 and 1.807, the Raw data (MCF-7 cells, IKK16 3.125 uM) was 41140 and 41710 and 40950 and 41840 and the Subtract reagent background (MCF-7 cells, IKK16 3.125 uM) was 33541 and 32781 and 33671 and 32971. The IC50 (MCF-7 cells, pretreated 1 h, then TNFα 50 ng per ml 30 min, read-out: IC50, inhibition of TNFα induced degradation of IκBα) was 1.44 µM.
